Laboratory results taken from US10793568B2, “Hormone receptor modulators for treating metabolic conditions and disorders” (ARDELYX, INC., priority 2016, dated 2020).
Like-named read-outs stand apart in the source and are kept apart here.

Assays:
[1] = molecular target: ligand binding domain of human FXR (Homo sapiens (Human), UniProt Q96RI1); assay: FXR ligand binding assay (LanthaScreen TR-FRET, SRC2-2 peptide recruitment); settings: for Emax: read-out: % Efficacy
[2] = molecular target: human Farnesoid X receptor ligand-binding domain/Gal4 DNA binding domain chimera (Homo sapiens (Human), UniProt Q96RI1); assay: Cell-based assay of FXR activation (FXR-UAS-bla HEK 293T beta-lactamase reporter); settings: cellular FXR beta-lactamase reporter assay; for Emax: HEK-293T, extent of activation relative to GW4064, read-out: % Efficacy; for EC50: FXR-UAS-bla HEK 293T cells, 16 h, pEC50 = -log EC50
Outline: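 Readout is cleavage of the CCF4 FRET substrate (409 nm excitation, blue 447 nm signal) by beta-lactamase, expressed under UAS control after a Gal4–human FXR LBD chimera is activated in HEK 293T cells. Compounds were added as 3-fold dilutions for 16 h at 37 °C in 2% charcoal-stripped FBS medium. Curves were fit to a 3-parameter logistic equation to give pEC50, with % activation relative to GW4064.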

[3] = -log EC50, concentration required to produce 50% activation
[4] = extent of activation relative to GW4064

human Farnesoid X receptor ligand-binding domain/Gal4 DNA binding domain chimera, sequence (Q96RI1 262-486, change not shown): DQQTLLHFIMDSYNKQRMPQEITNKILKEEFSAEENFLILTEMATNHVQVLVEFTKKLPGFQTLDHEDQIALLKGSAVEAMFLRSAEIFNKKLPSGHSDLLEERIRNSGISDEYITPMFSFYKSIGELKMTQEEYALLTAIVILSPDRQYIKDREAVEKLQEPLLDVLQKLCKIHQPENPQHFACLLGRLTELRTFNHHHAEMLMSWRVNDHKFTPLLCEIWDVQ
human Farnesoid X receptor ligand-binding domain/Gal4 DNA binding domain chimera, sequence (P04386 1-147 partner): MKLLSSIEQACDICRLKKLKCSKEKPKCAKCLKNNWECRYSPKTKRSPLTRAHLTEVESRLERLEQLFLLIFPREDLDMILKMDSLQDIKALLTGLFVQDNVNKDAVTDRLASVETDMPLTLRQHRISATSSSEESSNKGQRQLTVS
ligand binding domain of human FXR, sequence (Q96RI1 262-486): as the sequence (Q96RI1 262-486, change not shown) above

In the case of `O=C(O)C1Cc2ccc(N3C(=O)[C@@H]4C[C@H]3C[C@H]4OCc3c(-c4c(Cl)cccc4Cl)noc3C3CC3)cc2C1` (stereo partly drawn) [Compound I-313, 5-[(1S,4R,5R)-5-{[5-cyclopropyl-3-(2,6-dichlorophenyl)-1,2-oxazol-4-yl]methoxy}-3-oxo-2-azabicyclo[2.2.1]heptan-2-yl]-2,3-dihydro-1H-indene-2-carboxylic Acid], the pEC50 [1, 3] is reported as 7, the Emax [1, 4] is reported as 140% and the Emax [2] is reported as 112%. The EC50 [2] was 25.1 nM.
For `O=C(O)CCc1ccc(N2C[C@@H]3C[C@H]2C[C@H]3OCc2c(-c3c(Cl)cccc3Cl)noc2C2CC2)c(F)c1` [Compound I-154, 3-{4-[(1S,4S,5R)-5-{[5-cyclopropyl-3-(2,6-dichlorophenyl)-1,2-oxazol-4-yl]methoxy}-2-azabicyclo[2.2.1]heptan-2-yl]-3-fluorophenyl}propanoic Acid], the pEC50 [1, 3] was 8.6, the Emax [1, 4] was 158% and the Emax [2] was 105%. It also gave an EC50 [2] of 0.501 nM.
`COC(=O)c1cc(F)c2nc(N3C[C@@H]4C[C@H]3C[C@@H]4OCc3c(-c4c(Cl)cccc4Cl)noc3C3CC3)sc2c1` [Compound I-36, Methyl 2-[(1S,4S,5S)-5-{[5-cyclopropyl-3-(2,6-dichlorophenyl)-1,2-oxazol-4-yl]methoxy}-2-azabicyclo[2.2.1]heptan-2-yl]-4-fluoro-1,3-benzothiazole-6-carboxylate] showed a pEC50 [1, 3] of 5.4, an Emax [1, 4] of 86% and an Emax [2] of 50%. It also gave an EC50 [2] of 6310 nM.
`O=C(O)c1cc(O[C@@H]2CCOC2)c2nc(N3C[C@@H]4C[C@H]3C[C@H]4OCc3c(-c4c(Cl)cccc4Cl)noc3C3CC3)sc2c1` [Compound I-261, 2-[(1S,4S,5R)-5-{[5-cyclopropyl-3-(2,6-dichlorophenyl)-1,2-oxazol-4-yl]methoxy}-2-azabicyclo[2.2.1]heptan-2-yl]-4-[(3R)-oxolan-3-yloxy]-1,3-benzothiazole-6-carboxylic Acid] showed a pEC50 [1, 3] of 8.6, an Emax [1, 4] of 161% and an Emax [2] of 110%. The EC50 [2] was 0.398 nM.
Work on `O=C(O)c1cc(F)c2nc(N3C[C@@H]4C[C@H]3C[C@H]4OCc3c(C4CCCCC4)noc3C3CC3)sc2c1` [Compound I-21, 2-[(1S,4S,5R)-5-[(3-cyclohexyl-5-cyclopropyl-1,2-oxazol-4-yl)methoxy]-2-azabicyclo[2.2.1]heptan-2-yl]-4-fluoro-1,3-benzothiazole-6-carboxylic Acid] yielded an EC50 [1, 3] of 100 nM, an Emax [1, 4] of 123% and an Emax [2] of 110%. The EC50 [2] was 79.4 nM.
`Cc1cccc(Cl)c1-c1noc(C2CC2)c1CO[C@@H]1C[C@@H]2C[C@H]1CN2c1nc2c(C)cc(C(=O)O)cc2s1` [Compound I-269] was tested, and the pEC50 [1, 3] was 8.5, the Emax [1, 4] was 137% and the Emax [2] was 106%. It also gave an EC50 [2] of 0.631 nM.
Compound `O=C(O)c1cc([C@H]2CCOC2)c2nc(N3C[C@@H]4C[C@H]3C[C@H]4OCc3c(C4CCC5(CC4)CC5)noc3C3CC3)sc2c1` [Compound I-280, 2-((1S,4S,5R)-5-((5-cyclopropyl-3-(spiro[2.5]octan-6-yl)isoxazol-4-yl)methoxy)-2-azabicyclo[2.2.1]heptan-2-yl)-4-((R)-tetrahydrofuran-3-yl)benzo[d]thiazole-6-carboxylic acid] has a pEC50 [1, 3] of 7.3, an Emax [1, 4] of 115% and an Emax [2] of 105%. It also gave an EC50 [2] of 25.1 nM.
Compound `Cc1cccc(Cl)c1-c1noc(C2CC2)c1CO[C@@H]1C[C@@H]2C[C@H]1CN2c1nc2c(O[C@H]3CCOC3)cc(C(=O)O)cc2s1` [Compound I-274, 2-((1S,4S,5R)-5-((3-(2-chloro-6-methylphenyl)-5-cyclopropylisoxazol-4-yl)methoxy)-2-azabicyclo[2.2.1]heptan-2-yl)-4-(((S)-tetrahydrofuran-3-yl)oxy)benzo[d]thiazole-6-carboxylic acid] has a pEC50 [1, 3] of 8.8, an Emax [1, 4] of 150% and an Emax [2] of 100%. For the same compound, the EC50 [2] was 0.631 nM.
Compound `O=C(O)c1ccc([N+]2([O-])C[C@@H]3C[C@H]2C[C@H]3OCc2c(-c3c(Cl)cccc3Cl)noc2C2CC2)cc1` (stereo partly drawn) [Compound I-127, (1S,4S,5R)-2-(4-carboxyphenyl)-5-{[5-cyclopropyl-3-(2,6-dichlorophenyl)-1,2-oxazol-4-yl]methoxy}-2-azabicyclo[2.2.1]heptan-2-ium-2-olate] has a pEC50 [1, 3] of 9.3, an Emax [1, 4] of 136% and an Emax [2] of 104%. It also gave an EC50 [2] of 2.51 nM.
`O=C(O)c1cc(C2CCOCC2)c2nc(N3C[C@@H]4C[C@H]3C[C@H]4OCc3c(C4CCC5(CC4)CC5)noc3C3CC3)sc2c1` [Compound I-279] gave a pEC50 [1, 3] of 7.2, an Emax [1, 4] of 112% and an Emax [2] of 104%. It also gave an EC50 [2] of 39.8 nM.
In the case of `O=C(O)c1cc(C2CCOCC2)c2nc(N3C[C@@H]4C[C@H]3C[C@H]4OCc3c(-c4c(Cl)cccc4Cl)noc3C3CC3)sc2c1` [Compound I-254, 2-[(1S,4S,5R)-5-{[5-cyclopropyl-3-(2,6-dichlorophenyl)-1,2-oxazol-4-yl]methoxy}-2-azabicyclo[2.2.1]heptan-2-yl]-4-(oxan-4-yl)-1,3-benzothiazole-6-carboxylic Acid], the pEC50 [1, 3] is reported as 9, the Emax [1, 4] is reported as 143% and the Emax [2] is reported as 106%. It also gave an EC50 [2] of 0.316 nM.
In the case of `O=C(O)c1cc(F)c2nc(N3C[C@@H]4C[C@H]3C[C@H]4OCc3c(-c4c(Cl)cccc4Cl)noc3C3(F)CC3)sc2c1` [Compound I-24, 2-[(1S,4S,5R)-5-{[3-(2,6-dichlorophenyl)-5-(1-fluorocyclopropyl)-1,2-oxazol-4-yl]methoxy}-2-azabicyclo[2.2.1]heptan-2-yl]-4-fluoro-1,3-benzothiazole-6-carboxylic Acid], the pEC50 [1, 3] is reported as 7.9, the Emax [1, 4] is reported as 180% and the Emax [2] is reported as 102%. For the same compound, the EC50 [2] was 0.631 nM.
`O=C(O)c1cc(C2CCCC2)c2nc(N3C[C@@H]4C[C@H]3C[C@H]4OCc3c(-c4c(Cl)cccc4Cl)noc3C3CC3)sc2c1` [Compound I-250, 4-cyclopentyl-2-[(1S,4S,5R)-5-{[5-cyclopropyl-3-(2,6-dichlorophenyl)-1,2-oxazol-4-yl]methoxy}-2-azabicyclo[2.2.1]heptan-2-yl]-1,3-benzothiazole-6-carboxylic Acid] was tested, and the pEC50 [1, 3] was 7.8, the Emax [1, 4] was 128% and the Emax [2] was 114%. It also gave an EC50 [2] of 0.501 nM.
Work on `O=C(O)c1ccc(N2C[C@H]3C[C@@H]2C[C@@H]3OCc2c(-c3c(Cl)cccc3Cl)noc2C2CC2)c(F)c1` [Compound I-131, 4-[(1R,4R,5S)-5-{[5-cyclopropyl-3-(2,6-dichlorophenyl)-1,2-oxazol-4-yl]methoxy}-2-azabicyclo[2.2.1]heptan-2-yl]-3-fluorobenzoic Acid] yielded an Emax [1] of 108%, an Emax [2] of 94% and an EC50 [2] of 31.6 nM.
With `O=C(O)c1ccc(N2C[C@@H]3C[C@H]2C[C@H]3OCc2c(-c3c(F)cccc3Cl)noc2C2CC2)cc1` [Compound I-118, 4-[(1S,4S,5R)-5-{[3-(2-chloro-6-fluorophenyl)-5-cyclopropyl-1,2-oxazol-4-yl]methoxy}-2-azabicyclo[2.2.1]heptan-2-yl]benzoic Acid] the pEC50 [1, 3] was 8.6, the Emax [1, 4] was 145% and the Emax [2] was 108%. For the same compound, the EC50 [2] was 7.94 nM.
In the case of `O=C(O)C1CC(c2ccc(N3C[C@@H]4C[C@H]3C[C@H]4OCc3c(-c4c(Cl)cccc4Cl)noc3C3CC3)cc2)C1` (stereo partly drawn) [Compound I-151, 3-{4-[(1S,4S,5R)-5-{[5-cyclopropyl-3-(2,6-dichlorophenyl)-1,2-oxazol-4-yl]methoxy}-2-azabicyclo[2.2.1]heptan-2-yl]phenyl}cyclobutane-1-carboxylic Acid], the pEC50 [1, 3] is reported as 8.6, the Emax [1, 4] is reported as 134% and the Emax [2] is reported as 106%. The EC50 [2] was 25.1 nM.
